As a reminder, the MIC is the smallest concentration in the dilution series that meets the test's criterion for growth inhibition. Read a low MIC as a more susceptible organism.

These results are taken from ChEMBL document CHEMBL4602605, “Fluoroquinolones structural and medicinal developments (2013-2018): Where are we now?” (Bioorg Med Chem, 2019).

Common to all, as to format: functional
The subject of assay [1] is Mycolicibacterium smegmatis. As to the kind of experiment: Antimicrobial activity against Mycobacterium smegmatis ATCC 607 incubated for 48 to 72 hrs by microbroth dilution method. (In general: Dilution methods test growth across graded concentrations, often in twofold steps.)
A further assay concerns Enterococcus faecalis. As to the kind of experiment: Antimicrobial activity against Enterococcus faecalis ATCC 29212 incubated for 18 to 24 hrs by microbroth dilution method.
In assay [2] the test system is Staphylococcus aureus. As to the kind of experiment: Antimicrobial activity against Staphylococcus aureus ATCC 25923 incubated for 18 to 24 hrs by microbroth dilution method.
The test system of assay [3] is Pseudomonas aeruginosa. The assay is described as follows: Antimicrobial activity against Pseudomonas aeruginosa ATCC 43288 incubated for 18 to 24 hrs by microbroth dilution method.
The next assay concerns Bacillus cereus. The assay is described as follows: Antimicrobial activity against Bacillus cereus 709 Roma incubated for 18 to 24 hrs by microbroth dilution method.
In assay [4] the test system is Yersinia pseudotuberculosis. The assay is described as follows: Antimicrobial activity against Yersinia pseudotuberculosis ATCC 911 incubated for 18 to 24 hrs by microbroth dilution method.
Assay [5] relates to Staphylococcus aureus. As to the kind of experiment: Antimicrobial activity against Staphylococcus aureus ATCC 29213 incubated for 24 hrs by CLSI-based dilution method. Conditions: ATCC 29213, 24 h.
The subject of assay [6] is Staphylococcus aureus. As to the kind of experiment: Antimicrobial activity against methicillin-resistant Staphylococcus aureus ATCC 700699 incubated for 24 hrs by CLSI-based broth microdilution method. The settings on record: ATCC 700699, 24 h.
The test system of the next assay is Klebsiella pneumoniae. As to the kind of experiment: Antimicrobial activity against Klebsiella pneumoniae ATCC 27736 incubated for 24 hrs by CLSI-based broth microdilution method. Conditions: ATCC 27736, 24 h.
Assay [7] relates to Pseudomonas aeruginosa. The assay is described as follows: Antimicrobial activity against Pseudomonas aeruginosa ATCC BAA-427 incubated for 24 hrs by CLSI-based broth microdilution method. The settings on record: ATCC BAA-427, 24 h.
Assay [8] relates to Staphylococcus aureus. The assay is described as follows: Antimicrobial activity against gentamicin-resistant Staphylococcus aureus ATCC 33592 incubated for 24 hrs by CLSI-based broth microdilution method. The settings on record: ATCC 33592, 24 h.
The test system of assay [9] is Staphylococcus aureus. The assay is described as follows: Antimicrobial activity against Staphylococcus aureus ATCC 25923 incubated for 24 hrs by CLSI-based dilution method. Conditions: ATCC 25923, 24 h.
Assay [10] concerns Escherichia coli. The assay is described as follows: Antimicrobial activity against Escherichia coli ATCC 9637 incubated for 24 hrs by CLSI-based broth microdilution method. The settings on record: W ATCC 9637, 24 h.
Assay [11] deals with Escherichia coli. The assay is described as follows: Antimicrobial activity against Escherichia coli ATCC […] by microdilution method.
Assay [12] has as its system Staphylococcus aureus. The assay is described as follows: Antimicrobial activity against methicillin-resistant Staphylococcus aureus ATCC 25923 by microdilution method.
For assay [13], the system named is Staphylococcus aureus. The assay is described as follows: Antimicrobial activity against Staphylococcus aureus ATCC 29213 by microdilution method.
Assay [14] concerns Escherichia coli. The assay is described as follows: Antimicrobial activity against multidrug resistance Escherichia coli ATCC 35218 by microdilution method.
In assay [15] the test system is Mycobacterium tuberculosis. The assay is described as follows: Antimicrobial activity against Mycobacterium tuberculosis H37Rv incubated for 10 days by microbroth dilution method. Conditions: 240 h.

In brackets after ≈: the same amount, converted by molar mass.

As for `CCn1cc(C(=O)O)c(=O)c2cc(F)c(N3CCN(Cn4nc(CN5CCN(c6ccc([N+](=O)[O-])cc6)CC5)n(-c5ccccc5)c4=O)CC3)cc21`, the MIC in assay [1] is 0.244 to 0.25 µg/mL (≈ 0.343 to 0.351 µM); in the assay on Enterococcus faecalis, 0.122 µg/mL (≈ 0.171 µM); in the assay with Staphylococcus aureus [2], 0.24 to 0.48 µg/mL (≈ 0.337 to 0.674 µM); against Pseudomonas aeruginosa [3], 0.24 to 0.48 µg/mL (≈ 0.337 to 0.674 µM); with Bacillus cereus it was 0.03 to 0.25 µg/mL (≈ 0.0421 to 0.351 µM); in assay [4], 0.03 to 0.25 µg/mL (≈ 0.0421 to 0.351 µM).

For the molecule `CCn1cc(C(=O)O)c(=O)c2cc(F)c(-n3cc(CO[C@H]4O[C@H](COC(C)=O)[C@@H](OC(C)=O)[C@H](OC(C)=O)[C@H]4NC(C)=O)nn3)c(F)c21`, the minimal inhibitory concentration (MIC) against Staphylococcus aureus [5] was 6.25 µg/mL (≈ 9.2 µM); against Staphylococcus aureus [6], over 50 µg/mL; in the assay with Klebsiella pneumoniae it was 6.25 µg/mL (≈ 9.2 µM); in the assay on Pseudomonas aeruginosa [7], over 50 µg/mL; with Staphylococcus aureus [8], 6.25 µg/mL (≈ 9.2 µM); with Staphylococcus aureus [9], 6.25 µg/mL (≈ 9.2 µM). Moreover, the MIC against Escherichia coli [10] came out at 12.5 µg/mL (≈ 18.4 µM).

On to `CCN(CC)N(Cn1nc2c(F)cc3c(=O)c(C(=O)O)cn(C4CC4)c3n2c1=O)N(CC)CC`, for which the MIC with Escherichia coli [11] is at most 16 µg/mL; in the assay on Staphylococcus aureus [12] it was at most 32 µg/mL; against Staphylococcus aureus [13] it was at most 8 µg/mL; in the assay on Escherichia coli [14], at most 32 µg/mL.

As for `CCn1cc(C(=O)O)c(=O)c2cc(F)c(N3CCN(Cn4nc(CN5CCN(c6ccc([N+](=O)[O-])cc6)CC5)n(-c5ccccc5)c4=S)CC3)cc21`, the MIC is 0.244 to 0.25 µg/mL (≈ 0.335 to 0.343 µM) in assay [1]; 0.122 to 0.25 µg/mL (≈ 0.168 to 0.343 µM) with Enterococcus faecalis; 0.24 to 0.48 µg/mL (≈ 0.33 to 0.66 µM) against Staphylococcus aureus [2]; 0.03 to 0.24 µg/mL (≈ 0.0412 to 0.33 µM) in the assay on Pseudomonas aeruginosa [3]; 0.12 to 0.24 µg/mL (≈ 0.165 to 0.33 µM) with Bacillus cereus; 0.06 µg/mL (≈ 0.0824 µM) in assay [4].

On to `CN1CCN(N(Cn2nc3c(F)cc4c(=O)c(C(=O)O)cn(C5CC5)c4n3c2=O)N2CCN(C)CC2)CC1`, for which the minimal inhibitory concentration (MIC) was at most 0.25 µg/mL against Escherichia coli [11], at most 2 µg/mL with Staphylococcus aureus [12], at most 0.25 µg/mL in the assay on Staphylococcus aureus [13] and at most 2 µg/mL against Escherichia coli [14].

For the molecule `C[C@H]1COc2c(-c3cc4ccccc4oc3=O)c(F)cc3c(=O)c(C(=O)O)cn1c23`, inhibition of growth in assay [15] (MIC) required 12.5 µg/mL (≈ 30.7 µM).

Take `CCn1cc(C(=O)O)c(=O)c2cc(F)c(-n3cc(CO[C@H]4OC[C@@H](OC(C)=O)[C@@H](OC(C)=O)[C@@H]4OC(C)=O)nn3)c(F)c21`: the MIC in the assay with Staphylococcus aureus [5] is 6.25 µg/mL (≈ 10.3 µM); with Staphylococcus aureus [6], over 50 µg/mL; against Klebsiella pneumoniae, 6.25 µg/mL (≈ 10.3 µM); in the assay on Pseudomonas aeruginosa [7], over 50 µg/mL; in the assay on Staphylococcus aureus [8], 6.25 µg/mL (≈ 10.3 µM); in the assay with Staphylococcus aureus [9] it was 6.25 µg/mL (≈ 10.3 µM). Moreover, the MIC against Escherichia coli [10] was 12.5 µg/mL (≈ 20.5 µM).

For `CCn1cc(C(=O)O)c(=O)c2cc(F)c(-n3cc(CO[C@H]4O[C@H](COC(C)=O)[C@@H](OC(C)=O)[C@H](OC(C)=O)[C@@H]4OC(C)=O)nn3)c(F)c21`, the MIC against Staphylococcus aureus [5] was 12.5 µg/mL (≈ 18.4 µM); in the assay on Staphylococcus aureus [6] it was over 50 µg/mL; against Klebsiella pneumoniae, 25 µg/mL (≈ 36.7 µM); against Pseudomonas aeruginosa [7], over 50 µg/mL; against Staphylococcus aureus [8], 12.5 µg/mL (≈ 18.4 µM); in the assay on Staphylococcus aureus [9] it was 12.5 µg/mL (≈ 18.4 µM). The same molecule registered an MIC against Escherichia coli [10] of 50 µg/mL (≈ 73.5 µM).

`CCN1CCN(N(Cn2nc3c(F)cc4c(=O)c(C(=O)O)cn(C5CC5)c4n3c2=O)N2CCN(CC)CC2)CC1`: the MIC is at most 0.125 µg/mL in the assay with Escherichia coli [11], at most 0.5 µg/mL with Staphylococcus aureus [12], at most 0.125 µg/mL against Staphylococcus aureus [13] and at most 0.25 µg/mL in the assay with Escherichia coli [14].

Regarding `CC1CNCCN1N(Cn1nc2c(F)cc3c(=O)c(C(=O)O)cn(C4CC4)c3n2c1=O)N1CCNCC1C` (stereo not drawn), the MIC in the assay on Escherichia coli [11] is at most 0.25 µg/mL; against Staphylococcus aureus [12], at most 1 µg/mL; against Staphylococcus aureus [13], at most 0.5 µg/mL; in the assay with Escherichia coli [14] it was at most 2 µg/mL.

Turning to `CCn1cc(C(=O)O)c(=O)c2cc(F)c(-n3cc(CO[C@H]4OC[C@@H](OC(C)=O)[C@H](OC(C)=O)[C@H]4OC(C)=O)nn3)c(F)c21`, the MIC against Staphylococcus aureus [5] was 12.5 µg/mL (≈ 20.5 µM); in the assay with Staphylococcus aureus [6], over 50 µg/mL; against Klebsiella pneumoniae, 25 µg/mL (≈ 41.1 µM); in the assay with Pseudomonas aeruginosa [7], over 50 µg/mL; against Staphylococcus aureus [8] it was 12.5 µg/mL (≈ 20.5 µM); with Staphylococcus aureus [9] it was 12.5 µg/mL (≈ 20.5 µM). The lowest concentration to inhibit growth against Escherichia coli [10] (MIC) was 12.5 µg/mL (≈ 20.5 µM).

`CCn1cc(C(=O)O)c(=O)c2cc(F)c(-c3cc4ccccc4oc3=O)cc21`: 12.5 µg/mL (≈ 33 µM) was the least that counted as inhibitory in [15] (MIC).
